US10391104B2, “Application of antidepressant compound in preparation of antidepressant drugs and antidepressant health-care foods” (ZHEJIANG ACADEMY OF MEDICAL SCIENCES, priority 2015, dated 2019)

Legend:
Male Kunming mice [1] = assay: mouse forced swimming test; type: in vivo; conditions: for effect on immobility time compared with normal saline control: 15 mg/kg
Experimental: (§1) Experimental method: the experiment was made using the mouse forced swimming test and tail suspension test according to the experimental methodology of pharmacology (see the description of these methods in Xu Shuyun et al. Experimental Methodology of Pharmacology. People's Medical Publishing House, 2005: 807-808) by subacute treatment (administered twice within 24 hours) and by intraperitoneal administration. The solvent control and the positive control with fluoxetine and imipramine were established in the experiment.
(§2) Administration method: totally 6 dosage groups of sarcostin were established: 0.05, 0.1, 0.25, 0.5, 1, 5 mg/kg. Male Kunming mice were randomly grouped in the experiment. All test samples were intraperitoneally administered at a volumetric dose of 0.1 mL/10 g. Administration frequency and time: test was made twice respectively in 0 and 19 h, and test was made in 24 h after the first administration. Positive control: 15 mg/kg of fluoxetine and 15 mg/kg of imipramine.

Male Kunming mice [2] = assay: mouse tail suspension test; type: in vivo
Experimental: as §1, §2

[3] = maximum dissolution amount; type: physicochemical
Experimental: (§3) Experimental method: 20 clean male ICR mice were randomly divided into two groups, and fasted for 12 h before the experiment. Sarcostin was administered many times based on its maximum dissolution amount and maximum administration volume. For the oral administration group, sarcostin was prepared with ultra-pure water (maximum dissolution amount: 1.5 mg/mL), and was intragastrically administered four times in 24 hours with 0.3 ml/10 g body weight each time, and with the total dosage of 180 mg/kg. For the intraperitoneal injection group, sarcostin was prepared with normal saline (maximum dissolution amount: 1.0 mg/mL), and was intraperitoneally injected four times in 24 hours with 0.3 ml/10 g body weight each time, and with the total dosage of 120 mg/kg.

male ICR mice = assay: preliminary acute toxicity test; type: in vivo, mouse; conditions: for toxic reaction: four times in 24 h, observed 7 days; for toxic and side reaction: preliminary acute toxicity test, no doses given
Experimental: as §3

mice = assay: antidepressant activity test of compounds 3, 23 and derivatives; type: in vivo, mouse; conditions: no doses given
Experimental: The solvent control and the positive control with fluoxetine and imipramine were established in the experiment.
as §2, with “administration.” for “administration. Positive control: 15 mg/kg of fluoxetine and 15 mg/kg of imipramine.”

[4] = 15 mg/kg i.p., twice within 24 h (0 and 19 h), test at 24 h
[5] = tail suspension test, 15 mg/kg i.p., twice within 24 h (0 and 19 h), test at 24 h

## CNCCC(Oc1ccc(C(F)(F)F)cc1)c1ccccc1 (stereo not drawn) [Fluoxetine, reference compound]
Male Kunming mice [1]
  effect on immobility time compared with normal saline control: significantly reduced the immobility time
Male Kunming mice [1]; [4]
  Immobility time (Average value, s): 79.00 s
Male Kunming mice [2]; tail suspension test, 15 mg/kg
  effect on immobility time compared with normal saline group: significantly reduced the immobility time
Male Kunming mice [2]; [5]
  Immobility time (Average value, s): 132.45 s

## CN(C)CCCN1c2ccccc2CCc2ccccc21 [Imipramine, reference compound]
Male Kunming mice [1]
  effect on immobility time compared with normal saline control: significantly reduced the immobility time
Male Kunming mice [1]; [4]
  Immobility time (Average value, s): 92.05 s
Male Kunming mice [2]; tail suspension test, 15 mg/kg
  effect on immobility time compared with normal saline group: significantly reduced the immobility time
Male Kunming mice [2]; [5]
  Immobility time (Average value, s): 155.37 s

## C[C@H](O)[C@]1(O)CC[C@@]2(O)[C@]1(C)[C@H](O)C[C@@H]1[C@@]3(C)CC[C@H](O)CC3=CC[C@]12O [Sarcostin]
[3]; normal saline
  maximum dissolution amount: 1.0 mg/mL
[3]; ultra-pure water
  maximum dissolution amount: 1.5 mg/mL
Male Kunming mice [1]
  preferred dose: 0.1 mg/kg
Male Kunming mice [1]; 0.05 mg/kg i.p., twice within 24 h
  Immobility time (Average value, s): 85.13 s
Male Kunming mice [1]; 0.1 mg/kg i.p., twice within 24 h
  Immobility time (Average value, s): 83.63 s
Male Kunming mice [1]; 0.25 mg/kg i.p., twice within 24 h
  Immobility time (Average value, s): 112.63 s
Male Kunming mice [1]; 0.5 mg/kg i.p., twice within 24 h
  Immobility time (Average value, s): 118.19 s
Male Kunming mice [1]; 1 mg/kg i.p., twice within 24 h
  Immobility time (Average value, s): 125.44 s
Male Kunming mice [1]; 5 mg/kg i.p., twice within 24 h
  Immobility time (Average value, s): 91.50 s
Male Kunming mice [1]; 0.05 to 0.5 mg/kg
  antidepressant activity compared with normal saline control: significant antidepressant activities
Male ICR mice; intragastric, total 180 mg/kg
  toxic reaction: without obvious toxic and side reaction
Male ICR mice; intraperitoneal injection, total 120 mg/kg
  toxic reaction: without obvious toxic and side reaction
Male Kunming mice [2]; tail suspension test
  preferred dosage: 0.5 mg/kg
Male Kunming mice [2]; tail suspension test, 0.05 mg/kg i.p., twice within 24 h
  Immobility time (Average value, s): 177.94 s
Male Kunming mice [2]; tail suspension test, 0.1 mg/kg i.p., twice within 24 h
  Immobility time (Average value, s): 167.77 s
Male Kunming mice [2]; tail suspension test, 0.25 mg/kg i.p., twice within 24 h
  Immobility time (Average value, s): 207.60 s
Male Kunming mice [2]; tail suspension test, 0.5 mg/kg i.p., twice within 24 h
  Immobility time (Average value, s): 166.46 s
Male Kunming mice [2]; tail suspension test, 1 mg/kg i.p., twice within 24 h
  Immobility time (Average value, s): 200.99 s
Male Kunming mice [2]; tail suspension test, 5 mg/kg i.p., twice within 24 h
  Immobility time (Average value, s): 177.05 s
Male Kunming mice [2]; tail suspension test, 0.1, 0.5 and 0.05 mg/kg groups
  antidepressant trend: showed antidepressant trend
Male Kunming mice [2]; tail suspension test, all sarcostin doses
  effect on immobility time compared with normal saline group: did not significantly reduce the immobility time

## CC=C(C)C(=O)OC(C)C1(O)CCC2(O)C3(O)CC=C4CC(O)CCC4(C)C3CC(OC(=O)C(C)=CC)C12C (stereo not drawn) [compound 3, 12-O-tigloyl-20-O-tigloylsarcostin]
mice
  antidepressant activity: significant antidepressant activities
Male ICR mice
  toxic and side reaction: no significant toxic and side reaction

## CNc1ccccc1C(=O)OC1CC2C3(C)CCC(O)CC3=CCC2(O)C2(O)CCC(O)(C(C)=O)C12C (stereo not drawn) [compound 23, 12-O-(N-methyl) anthraniloyl deacetylmetaplexigenin]
mice
  antidepressant activity: significant antidepressant activities
Male ICR mice
  toxic and side reaction: no significant toxic and side reaction
